Reference: article PMC8895762 (BMC Complementary Medicine and Therapies, 2022)
Where two headings read alike, the source gives them in different places.

How the values were obtained:
[1] = tested on: NO production in LPS-stimulated RAW 264.7 macrophages; assay: NO production by the Griess method; type: cell-based, Murine; conditions: LPS 1 μg/mL; for IC50: RAW 264.7 macrophages, mean ± SD, n = 3; for inhibition at 40 µM: RAW264.7, read-out: NO inhibition rate; for inhibition at 40 µM / NO inhibition rate: 40 μM
Procedure: (§1) Murine RAW 264.7 macrophages were purchased from the American Tissue Culture Collection (Manassas, USA). These cells were incubated in DMEM supplemented with 10% FBS, 100 U/mL penicillin and 100 U/mL streptomycin in humidified 5% carbon dioxide (CO2) at 37 °C [16, 17].
The effects of 19 constituents on NO production in LPS-induced RAW 264.7 macrophages were determined using the Griess method. Prior to treatment, RAW 264.7 macrophages (5 × 10^3 cells/well) were seeded into 96-well plates and incubated for 24 h. […] After 1 h, cells were incubated with or without LPS at a concentration of 1 μg/mL at 37 °C for 24 h. After incubation, 50 μL of each supernatant solution was collected and mixed with equal volumes of Griess Reagent I and Griess Reagent II, respectively. The absorbance (A) was measured at 540 nm after 10 min of incubation at room temperature. The standard concentration of sodium nitrite was used to calculate the nitrite concentration. Moreover, the NO inhibition rate (%) = (ALPS − ALPS + sample)/(ALPS − Acontrol) × 100, where ALPS, ALPS + sample, and Acontrol are the absorbance of LPS model group, LPS + sample group, and DMEM group, respectively.

[2] = CCK-8 cell viability assay; type: cell-based, Murine; conditions: mouse
Procedure: as §1
(§2) The effects of 19 constituents on the viability of RAW 264.7 macrophages were assessed by CCK-8 assay. Prior to treatment, RAW 264.7 macrophages (5 × 10^3 cells/well) were seeded into 96-well plates and incubated for 24 h. All cultured cells were treated with or without 19 compounds at a concentration of 40 μM at 37 °C for 24 h. After incubation, 10 μL of CCK-8 solution was added to each well and incubated at 37 °C. After 2 h, the absorbance of each well was measured at 450 nm in a microplate reader. Cell viability was calculated using the following formular:
(§3) Cell viability (%) = Asample/Acontrol × 100, where Asample and Acontrol are the absorbance of cells treated with the compound and untreated cells, respectively. Moreover, the latter is expressed as 100% cell viability.

[3] = tested on: inflammatory cytokines in cells; design: method as in PMID 20221843, PMID 12105943, PMID 18448292, PMID 25821492; conditions: cited from earlier work
RAW 264.7 macrophages = assay: CCK-8 cell viability assay; type: cell-based, Murine; conditions: 40 μM, 24 h, RAW 264.7 macrophages, mean ± SD, n = 3
Procedure: as §1, §2, §3

[4] = tested on: TNF-α in LPS-stimulated RAW 264.7 macrophages; assay: TNF-α secretion by ELISA; type: cell-based, Murine; conditions: 20 μM, LPS 1 μg/mL, 24 h, compared to the LPS group, p < 0.01
Procedure: (§4) The logarithmic growth phase of RAW 264.7 macrophages was inoculated in 96-well plates at a density of 5 × 10^3 cells/well. After 24 h of incubation, these cells were pretreated with respective concentrations of 20 μM of each compound (1, 4–6, 15 and 17) for 1 h, followed by the addition of LPS (1 μg/mL) for 24 h. Finally, 50 μL of each supernatant solution was taken to measure the concentrations of TNF-α, PGE2, IL-1β and IL-6, using the corresponding commercially available murine ELISA kits in accordance with the manufacturer’s instructions.

[5] = tested on: phosphorylated NF-κB p65 in LPS-stimulated RAW 264.7 macrophages; assay: NF-κB activation by Western blotting; type: cell-based, Murine; conditions: 20 μM, LPS 1 μg/mL, 24 h, compared to the LPS group, p < 0.01
Procedure: RAW 264.7 macrophages were seeded and pretreated with respective concentrations of 20 μM of each compound (1, 4–6, 15 and 17) for 1 h, followed by the addition of LPS (1 μg/mL) for 24 h. Subsequently, the total protein was extracted by resuspending the cells in RIPA lysis buffer. In addition, protein concentrations were measured by a Bicinchoninic acid (BCA) assay kit. Proteins were separated using SDS-PAGE gels and then electroplated onto a PVDF membrane, which was blocked with 5% skim milk for 1 h at room temperature in Tris-buffered saline-Tween (TBST). Membranes were washed three times with TBST and then incubated overnight at 4 °C in diluted (1:1000) primary antibody solution (anti-NF-κB p65 or anti-phosphorylated-NF-κB p65). After washing three times with TBST, the membranes were incubated with a 1:5000 dilution of HRP-conjugated secondary antibody for 1 h at room temperature. The immunoreactive bands were determined by densitometry and quantified using a Bio-Rad auto-developer (Bio-Rad, California, USA). All results are expressed as relative ratios to the reference protein GAPDH [16, 17].

[6] = tested on: IL-1β in LPS-stimulated RAW 264.7 macrophages; assay: IL-1β secretion by ELISA; type: cell-based, Murine; conditions: 20 μM, LPS 1 μg/mL, 24 h, compared to the LPS group, p < 0.01
Procedure: as §4

[7] = tested on: IL-6 in LPS-stimulated RAW 264.7 macrophages; assay: IL-6 secretion by ELISA; type: cell-based, Murine; conditions: 20 μM, LPS 1 μg/mL, 24 h, compared to the LPS group, p < 0.01
Procedure: as §4

[8] = tested on: PGE2 in LPS-stimulated RAW 264.7 macrophages; assay: PGE2 secretion by ELISA; type: cell-based, Murine; conditions: 20 μM, LPS 1 μg/mL, 24 h, compared to the LPS group, p < 0.01
Procedure: as §4

| Compound | IC50 ([1]; Mus musculus, RAW264.7, 24 h) [µM] | inhibition at 40 µM ([1]; Mus musculus, 24 h) [%] | NO inhibition rate ([1]; 24 h) | IC50 ([1]; 24 h) [µM] | Cell viability (%) (RAW 264.7 macrophages) | further results |
| --- | --- | --- | --- | --- | --- | --- |
| O=c1c(O[C@@H]2O[C@H](CO)[C@@H](O)[C@H](O)[C@H]2O)c(-c2ccc(O)cc2)oc2cc(O)cc(O)c12 [Compound 2, astragalin] | > 40 | ≤ 50 | – | – | – | viability at 24 h, 40 µM ([2]; 40 μM, 24 h, RAW 264.7 macrophages, mean ± SD, n = 3, read-out: Cell viability (%)): 95 ± 1.86%; Anti-inflammatory effects by suppressing the secretion of inflammatory cytokines [3]: anti-inflammatory effects |
| C[C@@H]1O[C@@H](OC[C@H]2O[C@@H](OCCc3ccccc3)[C@H](O)[C@@H](O)[C@@H]2O)[C@H](O)[C@H](O)[C@H]1O [Compound 19, phenethyl-O-rutinoside] | – | – | ≤ 50% | > 40 | 92.30 ± 9.38 | – |
| hostaflavanone A [Compound 16] | – | – | ≤ 50% | > 40 | 92.56 ± 1.97 | – |
| C[C@@H]1O[C@@H](OC[C@H]2O[C@@H](O[C@H]3[C@H](Oc4c(-c5ccc(O)cc5)oc5cc(O)cc(O)c5c4=O)O[C@H](CO)[C@@H](O)[C@@H]3O)[C@H](O)[C@@H](O)[C@@H]2O)[C@H](O)[C@H](O)[C@H]1O [Compound 9, kaempferol-3-O-α-L-rhamnopyranosyl-(1 → 6)-β-D-glucopyranosyl-(1 → 2)-β-D-glucopyranoside] | > 40 | ≤ 50 | – | – | – | viability at 24 h, 40 µM [2]: 90.7 ± 3.71% |
| OC[C@H]1O[C@@H](OC[C@H]2O[C@@H](OCCc3ccccc3)[C@H](O)[C@@H](O)[C@@H]2O)[C@H](O)[C@@H](O)[C@@H]1O [Compound 18, phenethanol-β-gentiobioside] | – | – | ≤ 50% | > 40 | 92.51 ± 5.62 | – |
| C[C@@H]1O[C@@H](OC[C@H]2O[C@@H](Oc3c(-c4ccc(O)cc4)oc4cc(O)cc(O)c4c3=O)[C@H](O[C@@H]3O[C@H](CO)[C@@H](O)[C@H](O)[C@H]3O)[C@@H](O)[C@@H]2O)[C@H](O)[C@H](O)[C@H]1O [Compound 10, kaempferol-3-O-β-D-glucopyranosyl-(1 → 2)-[α-L-rhamnopyranosyl-(1 → 6)]-β-D-glucopyranoside] | > 40 | ≤ 50 | – | – | – | viability at 24 h, 40 µM [2]: 93.8 ± 5.06% |
| O=c1c(O[C@@H]2O[C@H](CO)[C@@H](O)[C@H](O)[C@H]2O[C@@H]2O[C@H](CO)[C@@H](O)[C@H](O)[C@H]2O)c(-c2ccc(O)cc2)oc2cc(O[C@@H]3O[C@H](CO)[C@@H](O)[C@H](O)[C@H]3O)cc(O)c12 [Compound 7, kaempferol-3-O-β-D-[β-D-glucopyranosyl-(1 → 2)-glucopyranoside]-7-O-β-D-glucopyranoside] | – | – | – | 26.5 ± 1.53 | 94.03 ± 4.52 | – |
| O=c1c(O[C@@H]2O[C@H](CO)[C@@H](O)[C@H](O)[C@H]2O[C@@H]2O[C@H](CO)[C@@H](O)[C@H](O)[C@H]2O)c(-c2ccc(O)cc2)oc2cc(O)cc(O)c12 [Compound 5, kaempferol-3-O-sophoroside] | – | – | – | 13.1 ± 1.61 | 93.48 ± 5.33 | – |
| O=c1c(O)c(-c2ccc(O)cc2)oc2cc(O[C@@H]3O[C@H](CO)[C@@H](O)[C@H](O)[C@H]3O)cc(O)c12 [Compound 3, kaempferol-7-O-β-D-glucopyranoside] | > 40 | ≤ 50 | – | – | – | viability at 24 h, 40 µM [2]: 91.1 ± 5.28% |
| OC[C@H]1O[C@@H](OCCc2ccccc2)[C@H](O)[C@@H](O)[C@@H]1O [Compound 17, phenethyl-O-β-D-glucopyranoside] | – | – | greater than 50% | 19.9 ± 2.01 | 92.21 ± 3.48 | Level of TNF-α [4]: significantly reduced; Phosphorylation of NF-κB p65 levels [5]: significantly lower; Level of IL-1β [6]: significantly reduced; Level of IL-6 [7]: significantly reduced; Level of PGE2 [8]: significantly reduced |
| plantanone D [Compound 13] | – | – | – | 36.1 ± 3.77 | 91.84 ± 1.11 | – |
| COc1cc(O)c2c(=O)c(O[C@@H]3O[C@H](CO)[C@@H](O)[C@H](O)[C@H]3O[C@@H]3O[C@H](CO)[C@@H](O)[C@H](O)[C@H]3O)c(-c3ccc(O)cc3)oc2c1 [Compound 6, plantanone A] | – | – | – | 12.6 ± 0.76 | 96.89 ± 1.04 | – |
| O=C1c2c(O)cc(O)cc2O[C@H](c2ccc(O)cc2)[C@H]1O [Compound 15, dihydrokaempferol] | ≤ 20 | > 50 | – | 18.3 ± 1.71 | – | viability at 24 h, 40 µM [2]: 91.3 ± 5.38%; Level of TNF-α [4]: significantly reduced; Anti-inflammatory effects by suppressing the secretion of inflammatory cytokines [3]: anti-inflammatory effects; Phosphorylation of NF-κB p65 levels [5]: significantly lower; Level of IL-1β [6]: significantly reduced; Level of IL-6 [7]: significantly reduced; Level of PGE2 [8]: significantly reduced |
| C[C@@H]1O[C@@H](OC[C@H]2O[C@@H](Oc3c(-c4ccc(O)cc4)oc4cc(O[C@@H]5O[C@H](CO)[C@@H](O)[C@H](O)[C@H]5O)cc(O)c4c3=O)[C@H](O)[C@@H](O)[C@@H]2O)[C@H](O)[C@H](O)[C@H]1O [Compound 8, kaempferol-3-O-rutinoside-7-O-glucopyranoside] | – | – | – | > 40 | 95.48 ± 3.54 | – |
| kaempferol-3-O-rutinoside [Compound 11] | – | – | greater than 50% | 31.2 ± 1.09 | – | Anti-inflammatory effects by suppressing the secretion of inflammatory cytokines [3]: anti-inflammatory effects |
| plantanone B [Compound 12] | – | – | ≤ 50% | > 40 | 91.93 ± 8.04 | – |
| O=c1c(O[C@@H]2O[C@H](CO)[C@@H](O)[C@H](O)[C@H]2O)c(-c2ccc(O)cc2)oc2cc(O[C@@H]3O[C@H](CO)[C@@H](O)[C@H](O)[C@H]3O)cc(O)c12 [Compound 4, kaempferol-3,7-di-O-β-D-glucopyranoside] | 12.2 ± 1.18 | > 50 | – | – | – | viability at 24 h, 40 µM [2]: 93.4 ± 6.34% |
